For the test, the system named is Replicase polyprotein 1ab (Severe acute respiratory syndrome coronavirus 2), P0DTD1 [C145A]. In words: Binding affinity to recombinant hexa-His tagged SARS-COV2 main protease C145A mutant expressed in HEK293T cells by in-gel fluorescence analysis. In kind it is cell-based.

Calls of active or inactive are those of the source. No cut-off for these calls is given here.

As to `C#CC[C@H](NC(=O)C(F)(F)F)C(=O)N1C[C@H]2[C@@H]([C@H]1C(=O)N[C@H](C#C)C[C@@H]1CCNC1=O)C2(C)C`, the result was inactive.

The record behind these values is ChEMBL document CHEMBL5365428, “Alkyne as a Latent Warhead to Covalently Target SARS-CoV-2 Main Protease” (J Med Chem, 2023).
